Legend:
PDE IV = PDE IV inhibition at a single concentration; format: biochemical; conditions: human; concentration 100 μM
Excerpt: Assays conducted with standard procedures, e.g. as described by Cortij et al., Br. J. Pharmacol. 108:562, 1993 or Nicholsen CD et al., Trends Pharmacol. Sci. 12:19, 1991 have yielded the following results for compounds figuring among the examples envisaged within the framework of the invention described herein.

[1] = test system: Rolipram receptor (H)PDE4; test: competition at the rolipram receptor; format: binding, Mouse; conditions: ratio IC50 (H)PDE4 / IC50 (L)PDE4
Excerpt: (§1) The following determination of IC50 for inhibition of PDE IV activity and competition at the rolipram receptor, conducted with standard processes, e.g. as described by Duplantier A. J. et al., J. Med. Chem. 39: 120, 1996 and by Thorphy T. J. et al., J Pharmacol. Exp. Ther., 263: 1195, 1992 have yielded the following results for compounds figuring among the examples envisaged within the framework of the invention described herein
(§2) N.C. means value not calculable because of no inhibition at the highest test concentration, however it means low affinity for rolipram receptor.

[2] = biological target: T1, Rolipram receptor (H)PDE4; test: competition at the rolipram receptor; format: binding, Mouse; conditions: origin Mouse brain
T1 construct: IC50(μM) Rolipram receptor (H)PDE4; other: origin Mouse brain
Excerpt: as §1, §2

PDE4 Activity (L)PDE4 = test: IC50 for inhibition of PDE IV activity; format: biochemical; conditions: origin Human
Excerpt: as §1

PDE1 = test: PDE selectivity, PDE1; format: biochemical, bovine
Excerpt: (§3) These assays have yielded the following results for compounds figuring among the examples envisaged within the framework of the invention described herein.

PDE2 = PDE2 (Homo sapiens, UniProt O00408); test: PDE selectivity, PDE2; format: biochemical
PDE2, sequence (O00408 whole entry): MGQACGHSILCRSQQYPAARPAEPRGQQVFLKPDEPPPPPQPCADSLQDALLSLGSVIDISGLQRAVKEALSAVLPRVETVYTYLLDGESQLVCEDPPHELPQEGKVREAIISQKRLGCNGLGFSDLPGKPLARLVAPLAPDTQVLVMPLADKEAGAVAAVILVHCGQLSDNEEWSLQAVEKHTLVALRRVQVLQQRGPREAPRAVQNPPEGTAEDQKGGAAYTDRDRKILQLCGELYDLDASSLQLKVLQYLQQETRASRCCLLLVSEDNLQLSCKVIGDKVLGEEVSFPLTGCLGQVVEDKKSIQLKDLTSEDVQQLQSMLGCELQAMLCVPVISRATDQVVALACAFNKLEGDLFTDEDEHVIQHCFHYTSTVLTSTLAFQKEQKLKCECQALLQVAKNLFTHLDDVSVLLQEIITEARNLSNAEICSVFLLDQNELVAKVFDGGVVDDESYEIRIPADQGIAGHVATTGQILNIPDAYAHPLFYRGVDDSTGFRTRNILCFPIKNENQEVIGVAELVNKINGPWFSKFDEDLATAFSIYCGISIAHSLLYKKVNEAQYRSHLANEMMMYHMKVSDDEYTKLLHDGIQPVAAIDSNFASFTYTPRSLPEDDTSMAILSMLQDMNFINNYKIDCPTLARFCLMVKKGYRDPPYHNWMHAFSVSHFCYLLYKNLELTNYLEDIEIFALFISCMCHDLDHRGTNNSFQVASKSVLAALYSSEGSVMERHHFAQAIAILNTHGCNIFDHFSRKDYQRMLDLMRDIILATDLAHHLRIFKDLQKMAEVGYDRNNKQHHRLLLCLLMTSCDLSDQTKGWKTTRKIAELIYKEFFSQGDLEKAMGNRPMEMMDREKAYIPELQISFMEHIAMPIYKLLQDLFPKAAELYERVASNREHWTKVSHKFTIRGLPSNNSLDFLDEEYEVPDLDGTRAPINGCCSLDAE
Excerpt: as §3

PDE4 = test: PDE selectivity, PDE4; format: biochemical, human
Excerpt: as §3

PDE3 = test: PDE selectivity, PDE3; format: biochemical, human
Excerpt: as §3

PDE5 = PDE5 (Homo sapiens, UniProt O76074); test: PDE selectivity, PDE5; format: biochemical
Excerpt: as §3

PDE6 = test: PDE selectivity, PDE6; format: biochemical, bovine
Excerpt: as §3

Structure (SMILES) | H/L [1] | IC50 [2] [µM] | IC50 (PDE4 Activity (L)PDE4) [µM] | % inhibition (PDE IV) [%] | also measured
COc1ccc(C(=O)CCC(=O)O)cc1OC1CCCC1 [ST 1689, 4-[3-(cyclopentyloxy)-4-methoxyphenyl]-4-oxo-butanoic acid] | – | – | – | – | melting point: 111 to 113 °C
COC(=O)/C(=C/c1ccc(OC)c(OC2CCCC2)c1)CC(=O)O [ST 1503, (3E)-4-[3-(cyclopentyloxy)-4-methoxyphenyl]-3-(methoxycarbonyl)-3-butenoic acid] | – | – | 6.2 | – | –
COC(=O)C(CC(=O)NO)Cc1ccc(OC)c(OC2CCCC2)c1 (racemic) [ST 1505, (R,S)-3-methoxycarbonyl-4-(3-cyclopentyloxy-4-methoxyphenyl)butane-hydroxamic acid] | 0.74 | 3.5 | 4.7 | 86 | –
COC(=O)C/C(=C\c1ccc(OC)c(OC2CCCC2)c1)C(=O)OC [ST 1945, methyl (3E)-3-methoxycarbonyl-4-(3-cyclopentoxy-4-methoxyphenyl)-3-butenoate] | 0.33 | 0.571 | 0.19 | – | –

Continued, in another order:

H/L [1] | IC50 [2] [µM] | IC50 (PDE4 Activity (L)PDE4) [µM] | Structure (SMILES) | % inhibition (PDE IV) [%] | also measured
>1.15 | > 10 | 8.7 | COC(=O)C(CC(=O)O)Cc1ccc(OC)c(OC2CCCC2)c1 (centres unmarked) [ST 1504] | 84 | –
7.13 | 9.27 | 1.3 | COC(=O)/C(=C/c1ccc(OC)c(OC2CCCC2)c1)CCC(=O)O [ST 1977, (4E)-5-[3-(ciclopentyloxy)-4-methoxyphenyl]-4-(methoxycarbonyl)-4-pentenoic acid] | – | –
0.51 | 0.615 | 1.2 | COC(=O)/C(=C/c1ccc(OC)c(OC2CCCC2)c1)CC(=O)NO [ST 1701, methyl (2E)-3-[3-(cyclopentyloxy)-4-methoxyphenyl]-2-[2-(hydroxyamino)-2-oxoethyl]-2-propenoate] | 88 | % PDE inhibition at 100 μM PDE1 (bovine) (PDE1): 42%; inhibition at 100 µM (PDE2): 16%; % PDE inhibition at 100 μM PDE4 (human) (PDE4): 94%; % PDE inhibition at 100 μM PDE3 (human) (PDE3): 52%; inhibition at 100 µM (PDE5): 30%; % PDE inhibition at 100 μM PDE6 (bovine) (PDE6): 58%

Source: US7169808B2, “Compounds useful for the preparation of medicaments with phosphodiesterase IV inhibitory activity” (Sigma-Tau Industrie Farmaceutiche Riunite S.p.A., priority 2000, dated 2007)
